Measured values: patent US20170240592A1, “GADD45BETA/MKK7 INHIBITOR FOR THE TREATMENT OF A RESISTANT HAEMATOLOGICAL MALIGNANCY” (IMPERIAL INNOVATIONS LIMITED, priority 2014, published 2017)

Columns and labels:
[1] = in vivo pharmacokinetic analyses after single intravenous injection; conditions: calculated from measured PK values, k0=k1×Vd×Cp
Description: (§2) In vitro pharmacokinetic assays were performed according to established, in-house protocols and included: plasma stability (human), thermodynamic solubility (PBS pH 7.4, at 37° C. for 14 days), microsomal stability (human), plasma protein binding (PPB; mouse and human), and distribution coefficient (Log D). In vivo pharmacokinetic analyses were also performed at Cyprotex according to established, in-house protocols. Briefly, the peptides were dissolved in PBS and administered by single intravenous injection to CD1 male mice at the dose of 10 mg/kg (25-30 g of total body weight; n=3 mice per time point per compound). Blood samples were collected in heparinized tubes at up to 7 time points after this injection (i.e. 0.08, 0.25, 0.5, 1, 2, 4 and 8 hr), and the plasma concentrations of the test peptide were determined at each time point by LC-MS/MS, using a five-point standard curve covering a peptide concentration range from 3 to 3,000 ng/mL. Standard curves were prepared using blank plasma matrices and treated in the same manner as the test samples. […] Values were calculated from the data of the peptide plasma concentration versus time curves using a non-compartmental model analysis, as described elsewhere (Groulx, 2006; Landaw and Di Stefano 3rd, 1982). The doses of z-DTP2 and DTP3 predicted to achieve the therapeutic plasma concentration of 1 μM at the steady state were calculated from the measured pharmacokinetic values using the following equation: k0=k1×Vd×Cp (where Vd is expressed in L/kg; Cp is the plasma concentration at the steady state expressed in mg/L; k0 is the zero order input expressed in mg/kg/hr; k1 is the first order elimination constant [0.693/t1/2]).

plasma stability (human) = type: in vitro ADME
[2] = tested on: medullary KMS-12 multiple myeloma xenografts; type: in vivo, NOD/SCID mice; conditions: 29 mg/kg/day intermittent infusion over 8 weeks; experimental end-point day 161
Description: Mice were housed in the animal facilities at Hammersmith. All experiments were conducted under PPL 70/6874, after approval by the Imperial College Ethical Review Process and the Home Office. For the plasmacytoma model, NOD/SCID mice (NOD.CB17-Prkdc^scid/IcrCrl; Charles River) were injected subcutaneously with 1.0×10^7 U266 or KMS-11 multiple myeloma cells, and then randomized into treatment groups and treated by infusion, as shown. Tumour volumes were measured as described in Mauro et al., 2011. For the orthotopic multiple myeloma model, mice of the same strain were sub-lethally irradiated and then injected intravenously with 1.0×10^7 KMS-12-BM multiple myeloma cells, as described in Rabin et al., 2007). […] Animals were monitored daily and euthanized on day 161 of treatment start or when they reached any of the end-points in the PPL. […]
For experiments in the medullary xenograft model, 6 to 8-week old male NOD/SCID mice (NOD.CB17-Prkdc^scid/IcrCrl; Charles River) were sub-lethally irradiated (3.50 Gy) and, then, injected intraperitoneally with purified anti-CD122 monoclonal antibody (200 μg/mouse), as above. […] Animals were monitored daily for weight loss and other clinical signs of medullary disease, such as hind limb paralysis and behavioural changes, and euthanized with CO2 on day 161 of treatment start or when the disease severity reached any of the end-points stated in the PPL. […]

[3] = mouse, in vivo, iv, 10 mg/kg
Description: as §2

[4] = tested on: multiple myeloma cell lines; assay: [3H]thymidine incorporation assay, survival of multiple myeloma cell lines; type: cell-based, human; conditions: 6-day treatment; all lines tested apart from RPMI-8226 and KMM-1
Description: (§1) Values express the percentage of live cells present in the treated cultures relative to the live cells present in the respective untreated cultures and denote means±SD ([WM]; n=3). UT, untreated. […] Values express the percentage of inhibition of Gadd45β binding to MKK7 relative to the binding measured in the absence of peptide. […] Co-immunoprecipitations (IP) were performed using an anti-FLAG antibody (a-FLAG); western blots (WB) were developed using an anti-HA or an anti-MKK7 antibody, as shown.
[^3H]Thymidine incorporation and trypan blue exclusion assays were performed using standard methods (Mauro et al., 2011). […] Apoptosis analyses were performed using PI staining as described in Mauro et al., 2011. Additional details are provided in the Supplemental Experimental Procedures.

Gadd45β/MKK7 complex = molecular target: T1, Gadd45β/MKK7 complex (Homo sapiens, UniProt O14733); assay: co-immunoprecipitation assay; type: binding; conditions: anti-FLAG immunoprecipitates, HEK-293T lysates
T1 construct: expressed in transfected cells; host or cells: human HEK-293T
T1 sequence (O14733 1-419): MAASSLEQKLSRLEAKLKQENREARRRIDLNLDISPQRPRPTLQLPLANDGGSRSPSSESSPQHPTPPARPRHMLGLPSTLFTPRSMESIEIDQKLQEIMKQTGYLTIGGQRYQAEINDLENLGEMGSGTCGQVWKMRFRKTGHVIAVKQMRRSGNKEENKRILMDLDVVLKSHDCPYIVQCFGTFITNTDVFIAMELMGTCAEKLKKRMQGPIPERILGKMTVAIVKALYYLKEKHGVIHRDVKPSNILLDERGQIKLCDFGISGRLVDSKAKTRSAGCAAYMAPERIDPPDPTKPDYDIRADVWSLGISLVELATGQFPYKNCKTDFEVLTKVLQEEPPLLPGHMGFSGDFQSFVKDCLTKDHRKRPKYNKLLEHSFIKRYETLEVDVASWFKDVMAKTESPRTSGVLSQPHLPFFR
Description: as §1
Co-immunoprecipitation assays were performed as described previously (Papa et al., 2004). Briefly, human HEK-293T cells were seeded at a density of 1.8-2.2×10^6 cells/dish in […] tissue-culture dishes and then transfected with pcDNA-FLAG-hMKK7 and pcDNA-HA-hGADD45β by using the calcium phosphate precipitation method (Papa et al., 2004). 48 hr after transfection, cells were washed with PBS and then lysed in lysis buffer supplemented with protease inhibitors (1 mM phenylmethylsulfonylfluoride, 10 μM chymostatin, 2 μg/mL aprotinin, 2 μg/mL leupeptin; Roche) for 30 min in ice. Cell lysates were cleared by centrifugation at 45,000×g for 40 min and then used for co-immunoprecipitations with anti-FLAG M2 Affinity Gel (Sigma-Aldrich), binding to FLAG-tagged MKK7. Western blots were developed using an anti-HA (binding to HA-hGADD45β) or an anti-MKK7 antibody. […]

tolerability in mice = type: in vivo
Source text: Values denote means±SD (n=3) or SEM (n=5), as indicated. MW, molecular weight.

CC(=O)N[C@H](Cc1ccc(O)cc1)C(=O)N[C@H](CCCNC(=N)N)C(=O)N[C@H](Cc1ccccc1)C(N)=O [DTP3, Acetyl-Tyr-Arg-Phe-NH2]
predicted dose required to achieve the therapeutic plasma concentration of 1 μM at the steady state (k0) [1]: 0.81 mg/kg/h | stability in human serum (plasma stability (human)): very high stability | median OS [2]: > 161 days | plasma clearance (CL) compared with z-DTP2 [3]: significantly lower | terminal half-life (t1/2) compared with z-DTP2 [3]: somewhat shorter | volume of distribution (Vd) compared with z-DTP2 [3]: much lower | cytotoxic activity in multiple myeloma cell lines [4]: potent and selective capacity to kill multiple myeloma cells via apoptosis | disruption of the Gadd45β/MKK7 complex (Gadd45β/MKK7 complex): disruption of the Gadd45β/MKK7 complex | tolerability after single administration (tolerability in mice; mice, single i.v. injection, s.c. injection or per os): excellent tolerability | in-vivo tolerability (tolerability in mice; mouse, in vivo): excellent in-vivo tolerability | tolerability after prolonged administration (tolerability in mice; osmotic pumps, 28 days, 14.5 mg/kg/day): excellent tolerability and lack of any apparent side effects
